Source: article PMC8124163 (2021)

Key:
[1] = tested on: 22AG (DNA, G4) AGGGTTAGGGTTAGGGTTAGGG; assay: photometric titration; conditions: K+ 110 mM; K-phosphate buffer, pH 7.0, 5% v/v DMSO; compound 20 µM
[2] = tested on: c-kit (DNA, G4) AGGGAGGGCGCTGGGAGGAGGG; assay: photometric titration; conditions: K+ 110 mM; K-phosphate buffer, pH 7.0, 5% v/v DMSO; compound 20 µM
[3] = tested on: a2 (DNA, G4) ACAGGGGTGTGGGGACAGGGGTGTGGGG; assay: photometric titration; conditions: K+ 110 mM; K-phosphate buffer, pH 7.0, 5% v/v DMSO; compound 20 µM
[4] = tested on: c-myc (DNA, G4) TGAGGGTGGGTAGGGTGGGTA; assay: photometric titration; conditions: K+ 110 mM; K-phosphate buffer, pH 7.0, 5% v/v DMSO; compound 20 µM
[5] = tested on: FmycT (DNA, G4) TGAGGGTGGGTAGGGTGGGTA; assay: FRET melting (fluorescence); conditions: K+ 10 mM, Na+ 10 mM, Li+ 90 mM; cacodylate, pH 7.0; ligand:DNA ratio 5; DNA 0.2 µM (Figure S6; Table 2 prints 0.2 mM); error ±0.5 °C
[6] = tested on: FkitT (DNA, G4) AGGGAGGGCGCTGGGAGGAGGG; assay: FRET melting (fluorescence); conditions: K+ 10 mM, Na+ 10 mM, Li+ 90 mM; cacodylate, pH 7.0; ligand:DNA ratio 5; DNA 0.2 µM (Figure S6; Table 2 prints 0.2 mM); error ±0.5 °C

Kb [1]: 5.0 ± 0.6 × 10^5 M^-1
Kb [2]: 6.9 ± 0.2 × 10^5 M^-1
Kb [3]: 6.7 ± 0.2 × 10^5 M^-1
Kb [4]: 5.9 ± 0.4 × 10^5 M^-1
∆Tm [5]: 2.2 °C
∆Tm [6]: 1.0 °C
SMILES: COc1ccc2cc3[n+](cc2c1OP(=O)(O)O)CCc1cc2c(cc1-3)OCO2
